Results: ChEMBL document CHEMBL1201862, “PubChem BioAssay data set” (2004)
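Growth conditions: 96-well plates. Treatment: test compound, 48 hours, 5 concentrations. Analysis: linear interpolation between bracketing concentrations; unreached endpoints set to highest concentration. At the GI50, growth is halved.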 Activity calls are given as the source filed them. Cut-off read from the data, not from the text of the source: active = GI50 up to about 1.1 µM and inactive = higher.

Experiments:
Assay in all cases: NCI-60 cell line screen, 48 h
A498 = system: A498
CAKI-1 = system: CAKI-1
HCC 2998 = system: HCC 2998
HCT-15 = system: HCT-15
HL-60 = system: HL-60
HT-29 = system: HT-29
LOX IMVI = system: LOX IMVI
Malme-3M = system: Malme-3M
NCI-H23 = system: NCI-H23
NCI/ADR-RES = system: NCI/ADR-RES
OVCAR-5 = system: OVCAR-5
SF-268 = system: SF-268
SF-539 = system: SF-539
SK-MEL-28 = system: SK-MEL-28
SK-MEL-2 = system: SK-MEL-2
SNB-75 = system: SNB-75
SW-620 = system: SW-620
UACC-257 = system: UACC-257
UO-31 = system: UO-31
M14 = system: M14

Structure (SMILES)	GI50 (A498)	GI50 (CAKI-1)	GI50 (HCC 2998)	GI50 (HCT-15)	GI50 (HL-60)	GI50 (HT-29)	GI50 (LOX IMVI)	GI50 (Malme-3M)	GI50 (NCI-H23)	GI50 (NCI/ADR-RES)	GI50 (OVCAR-5)	GI50 (SF-268)	GI50 (SF-539)	GI50 (SK-MEL-28)	GI50 (SK-MEL-2)	GI50 (SNB-75)	GI50 (SW-620)	GI50 (UACC-257)	GI50 (UO-31)	GI50 (M14)
CCCCCCCCCCCCCCCCCCOP(=O)([O-])OCC[N+](C)(C)C [OCTADECYLPHOSPHONOCHOLINE]	8.41 µM (inactive)	321 nM (active)	0.245 µM (active)	644 nM	317 nM (active)	0.608 µM (active)	863 nM (active)	1.02 µM (active)	1.13 µM (inactive)	1.32 µM (inactive)	1.53 µM (inactive)	807 nM (active)	1.2 µM (inactive)	8.22 µM (inactive)	0.998 µM (active)	0.836 µM (active)	771 nM (active)	1.19 µM (inactive)	1.13 µM (inactive)	–
COC(=O)CCC(=O)c1ccc2c(c1)CCC2	> 100 µM (inactive)	> 100000 nM (inactive)	> 100 µM (inactive)	> 100000 nM	> 100000 nM (inactive)	> 100 µM (inactive)	> 100000 nM (inactive)	> 100 µM (inactive)	> 100 µM (inactive)	> 100 µM (inactive)	> 100 µM (inactive)	> 100000 nM (inactive)	> 100 µM (inactive)	> 100 µM (inactive)	> 100 µM (inactive)	> 100 µM (inactive)	> 100000 nM (inactive)	> 100 µM (inactive)	> 100 µM (inactive)	> 100 µM (inactive)
C=C1C(=O)O[C@@H]2[C@H](O)[C@@H](C)[C@@H]3C=CC(=O)[C@@]3(C)[C@H](OC(=O)C=C(C)C)[C@H]12	2.21 µM (inactive)	536 nM (active)	1.79 µM (inactive)	242 nM	200 nM (active)	1.26 µM (inactive)	457 nM (active)	0.587 µM (active)	1.35 µM (inactive)	0.536 µM (active)	2.52 µM (inactive)	916 nM (active)	0.255 µM (active)	0.514 µM (active)	1.32 µM (inactive)	1.04 µM (active)	353 nM (active)	1.59 µM (inactive)	2.82 µM (inactive)	–
